The source of these data is patent publication US5859257A, “Isoxazole compounds as cyclooxygenase inhibitors” (G. D. Searle & Co., priority 1996, dated 1999).

One assay has as its target COX-2. Put plainly: Evaluation of COX-2 activity in vitro (PGE2 ELISA, recombinant enzyme). Format: biochemical, human or murine. As to conditions: arachidonic acid 10 μM, pH 8.0, pre-incubation 10-20 minutes. Here is the method:
The COX-2 inhibition activity of the compounds of this invention illustrated in the Examples was determined by the following methods.
(§1) a. Preparation of recombinant COX baculoviruses
(§2) Recombinant COX-1 and COX-2 were prepared as scribed by Gierse et al, [J. Biochem., 305, 479-84 (1995)]. […] Recombinant baculoviruses were isolated by transfecting 4 μg of baculovirus transfer vector DNA into SF9 insect cells (2×10^8) along with 200 ng of linearized baculovirus plasmid DNA by the calcium phosphate method. See M. D. Summers and G. E. Smith, A Manual of Methods for Baculovirus Vectors and Insect Cell Culture Procedures, Texas Agric. Exp. Station Bull. 1555 (1987). Recombinant viruses were purified by three rounds of plaque purification and high titer (10^7 -10^8 pfu/mL) stocks of virus were prepared. For large scale production, SF9 insect cells were infected in 10 liter fermentors (0.5×10^6 /mL) with the recombinant baculovirus stock such that the multiplicity of infection was 0.1. After 72 hours the cells were centrifuged and the cell pellet homogenized in Tris/Sucrose (50 mM: 25%, pH 8.0) containing 1% 3-[(3-cholamidopropyl)dimethylammonio]-1-propanesulfonate (CHAPS). The nomogenate was centrifuged at 10,000×G for 30 minutes, and the resultant supernatant was stored at -80° C. before being assayed for COX activity.
(§3) COX activity was assayed as PGE2 formed/μg protein/time using an ELISA to detect the prostaglandin released. CHAPS-solubilized insect cell membranes containing the appropriate COX enzyme were incubated in a potassium phosphate buffer (50 mM, pH 8.0) containing epinephrine, phenol, and heme with the addition of arachidonic acid (10 μM). […] Any reaction between the arachidonic acid and the enzyme was stopped after ten minutes at 37° C./room temperature by transferring 40 μl of reaction mix into 160 μl ELISA buffer and 25 μM indomethacin. The PGE2 formed was measured by standard ELISA technology (Cayman Chemical).
Background: In an ELISA, binding on a coated surface is turned into a signal by an enzyme label.
As for `NS(=O)(=O)c1ccc(-c2c(CC(=O)O)noc2-c2ccccc2)cc1` [Example 26, 4-(4-Aminosulfonylphenyl)-5-phenyl-isoxazole-3-acetic acid], the IC50 – broadly, the concentration that inhibits the measured activity by half – is 69500 nM. `NS(=O)(=O)c1ccc(-c2c(-c3ccccc3)noc2C(=O)O)cc1` [Example 11, [4-[4-(Aminosulfonyl)phenyl]-3-phenylisoxazol-5-yl]carboxylic acid]: the concentration for half-maximal inhibition (IC50) was determined as 35000 nM. Still for that read-out and setting: with `NS(=O)(=O)c1ccc(-c2c(-c3ccccc3)noc2CCCC(=O)O)cc1` [Example 36] the figure was 1500 nM. On to `COc1ccc(-c2noc(C(F)F)c2-c2ccc(S(N)(=O)=O)cc2)cc1F` [Example 44, 4-[5-Difluoromethyl-3-(3-fluoro-4-methoxyphenyl)isoxazol-4-yl]benzenesulfonamide], for which the IC50 is 1700 nM. On the same count and under the same terms, with `C[S+]([O-])c1onc(-c2ccccc2)c1-c1ccc(S(N)(=O)=O)cc1` (centres unmarked) [Example 59, 4-[5-Methylsulfinyl-3-phenylisoxazol-4-yl]benzenesulfonamide] the figure was less than 100 nM.

As for `Cc1noc(-c2ccc(Cl)cc2)c1-c1ccc(S(N)(=O)=O)cc1` [Example 20, 4-[5-(4-chlorophenyl)-3-methylisoxazol-4-yl]benzenesulfonamide], the IC50 is 4700 nM. Turning to `NS(=O)(=O)c1ccc(-c2c(CO)noc2-c2ccccc2)cc1` [Example 25, 4-[3-Hydroxymethyl-5-phenylisoxazol-4-yl]benzenesulfonamide], the IC50 was determined as 79000 nM. The same measure, in the same setting: with `CSc1ccc(-c2noc(C)c2-c2ccncc2)cc1` [Example 40, [5-Methyl-3-(4-methylthiophenyl)isoxazol-4-yl]-4-pyridine] the figure was 91000 nM. For the compound `Cc1onc(-c2ccc(Cl)c(Cl)c2C(=O)O)c1-c1ccc(S(N)(=O)=O)cc1` [Example 68, 6-[4-[4-(aminosulfonyl)phenyl]-5-methylisoxazol-3-yl]-2,3-dichlorobenzoic acid], the IC50 amounted to 400 nM. For `CCCc1onc(-c2ccccc2)c1-c1ccc(S(=O)(=O)O)cc1` [Example 1m, 4-[5-propyl-3-phenylisoxazol-4-yl]benzenesulfonic acid], the IC50 came to 51000 nM. On the same count and under the same terms, with `Cc1onc(-c2ccc(S(N)(=O)=O)cc2)c1-c1ccccc1` [Example 41, 4-[5-Methyl-4-phenylisoxazol-3-yl]benzenesulfonamide] the figure was 57500 nM; with `CCCCc1noc(-c2ccccc2)c1-c1ccc(S(N)(=O)=O)cc1` [Example 18, 4-[3-Butyl-5-phenylisoxazol-4-yl]benzenesulfonamide], 600 nM; with `CCc1noc(-c2cccc(F)c2)c1-c1ccc(S(N)(=O)=O)cc1` [Example 31, 4-[3-Ethyl-5-(3-fluorophenyl)isoxazol-4-yl]benzenesulfonamide], 1300 nM. Still for that read-out and setting: in the case of `CC(C)(C)Cc1onc(-c2ccccc2)c1-c1ccc(S(N)(=O)=O)cc1` [Example 1g, 4-[5-neopentyl-3-phenylisoxazol-4-yl]benzenesulfonamide] it was less than 100 nM. Still for that read-out and setting: with `Cc1noc(-c2ccccc2)c1-c1ccc(S(C)(=O)=O)cc1` [Example 27, 3-Methyl-4-(4-methylsulfonylphenyl)-5-phenylisoxazole] the figure was 46000 nM. Consider `CCc1noc(-c2ccccc2F)c1-c1ccc(S(N)(=O)=O)cc1` [Example 33, 4-[3-Ethyl-5-(2-fluorophenyl)isoxazol-4-yl]benzenesulfonamide], for which the IC50 is less than 100 nM. On to `Cc1onc(-c2ccc(Cl)cc2)c1-c1ccc(S(N)(=O)=O)cc1` [Example 4a, 4-[3-(4-chlorophenyl)-5-methyl-isoxazol-4-yl]benzenesulfonamide], for which the IC50 is less than 100 nM.

Consider `NS(=O)(=O)c1ccc(-c2c(-c3ccccc3)noc2CCCO)cc1` [Example 1o, 4-[5-(3-hydroxypropyl)-3-phenylisoxazol-4-yl]benzenesulfonamide], for which the IC50 is 100 nM.

`NS(=O)(=O)c1ccc(-c2c(-c3ccccc3)noc2COc2ccc(C(=O)O)cc2)cc1` [Example 51, 4-[[4-[4-(Aminosulfonyl)phenyl]-3-phenylisoxazol-5-yl]methoxy]benzoic acid]: the IC50 was found to be 19000 nM. As to `CC(C)Cc1onc(-c2ccccc2)c1-c1ccc(S(N)(=O)=O)cc1` [Example 1e, 4-[5-isobutyl-3-phenylisoxazol-4-yl]benzenesulfonamide], the IC50 was less than 100 nM. Still for that read-out and setting: in the case of `Cc1onc(-c2ccc(Br)cc2)c1-c1ccc(S(N)(=O)=O)cc1` [Example 43, 4-[3-(4-Bromophenyl)-5-methyl-isoxazol-4-yl]benzenesulfonamide] it was 600 nM; in that of `NS(=O)(=O)c1ccc(-c2c(-c3ccccc3)noc2Cc2ccc(Cl)cc2)cc1` [Example 1i, 4-[5-(4-chlorophenyl)methyl-3-phenylisoxazol-4-yl]benzenesulfonamide], less than 100 nM; in that of `Cc1onc(-c2cccnc2)c1-c1ccc(S(N)(=O)=O)cc1` [Example 4e, 4-[5-methyl-3-(3-pyridyl)isoxazol-4-yl]benzenesulfonamide], 2000 nM. Turning to `NS(=O)(=O)c1ccc(-c2c(-c3ccccc3)noc2Cl)cc1` [Example 38, 4-[5-Chloro-3-phenylisoxazol-4-yl]benzenesulfonamide], the 50% inhibitory concentration (IC50) was less than 100 nM.

The target of a further assay is COX-1. In words: Evaluation of COX-1 activity in vitro (PGE2 ELISA, recombinant enzyme). Format: biochemical, human or murine. As to conditions: arachidonic acid 10 μM, pH 8.0, pre-incubation 10-20 minutes. Here is the method: as §1, §2, §3
Turning to `NS(=O)(=O)c1ccc(-c2c(CC(=O)O)noc2-c2ccccc2)cc1` [Example 26, 4-(4-Aminosulfonylphenyl)-5-phenyl-isoxazole-3-acetic acid], the half-maximal inhibitory concentration (IC50) is greater than 100 µM. Same read-out and setting: with `NS(=O)(=O)c1ccc(-c2c(-c3ccccc3)noc2CCCC(=O)O)cc1` [Example 36] the figure was greater than 100 µM; with `COc1ccc(-c2noc(C(F)F)c2-c2ccc(S(N)(=O)=O)cc2)cc1F` [Example 44, 4-[5-Difluoromethyl-3-(3-fluoro-4-methoxyphenyl)isoxazol-4-yl]benzenesulfonamide], greater than 100 µM. Still for that read-out and setting: with `C[S+]([O-])c1onc(-c2ccccc2)c1-c1ccc(S(N)(=O)=O)cc1` (centres unmarked) [Example 59, 4-[5-Methylsulfinyl-3-phenylisoxazol-4-yl]benzenesulfonamide] the figure was greater than 100 µM; with `Cc1noc(-c2ccc(Cl)cc2)c1-c1ccc(S(N)(=O)=O)cc1` [Example 20, 4-[5-(4-chlorophenyl)-3-methylisoxazol-4-yl]benzenesulfonamide], greater than 100 µM. Same read-out and setting: with `NS(=O)(=O)c1ccc(-c2c(CO)noc2-c2ccccc2)cc1` [Example 25, 4-[3-Hydroxymethyl-5-phenylisoxazol-4-yl]benzenesulfonamide] the figure was greater than 100 µM; with `CSc1ccc(-c2noc(C)c2-c2ccncc2)cc1` [Example 40, [5-Methyl-3-(4-methylthiophenyl)isoxazol-4-yl]-4-pyridine], 2.3 µM; with `Cc1onc(-c2ccc(Cl)c(Cl)c2C(=O)O)c1-c1ccc(S(N)(=O)=O)cc1` [Example 68, 6-[4-[4-(aminosulfonyl)phenyl]-5-methylisoxazol-3-yl]-2,3-dichlorobenzoic acid], greater than 100 µM. Take `CCCc1onc(-c2ccccc2)c1-c1ccc(S(=O)(=O)O)cc1` [Example 1m, 4-[5-propyl-3-phenylisoxazol-4-yl]benzenesulfonic acid]: the IC50 was greater than 100 µM.

As for `Cc1onc(-c2ccc(S(N)(=O)=O)cc2)c1-c1ccccc1` [Example 41, 4-[5-Methyl-4-phenylisoxazol-3-yl]benzenesulfonamide], the IC50 came to 81 µM. With `CCCCc1noc(-c2ccccc2)c1-c1ccc(S(N)(=O)=O)cc1` [Example 18, 4-[3-Butyl-5-phenylisoxazol-4-yl]benzenesulfonamide], the IC50 is greater than 100 µM.

On to `CCc1noc(-c2cccc(F)c2)c1-c1ccc(S(N)(=O)=O)cc1` [Example 31, 4-[3-Ethyl-5-(3-fluorophenyl)isoxazol-4-yl]benzenesulfonamide], for which the IC50 is greater than 100 µM. Still for that read-out and setting: in the case of `CC(C)(C)Cc1onc(-c2ccccc2)c1-c1ccc(S(N)(=O)=O)cc1` [Example 1g, 4-[5-neopentyl-3-phenylisoxazol-4-yl]benzenesulfonamide] it was greater than 100 µM. The same measure, in the same setting: with `Cc1noc(-c2ccccc2)c1-c1ccc(S(C)(=O)=O)cc1` [Example 27, 3-Methyl-4-(4-methylsulfonylphenyl)-5-phenylisoxazole] the figure was greater than 100 µM; with `CCc1noc(-c2ccccc2F)c1-c1ccc(S(N)(=O)=O)cc1` [Example 33, 4-[3-Ethyl-5-(2-fluorophenyl)isoxazol-4-yl]benzenesulfonamide], 26 µM; with `Cc1onc(-c2ccc(Cl)cc2)c1-c1ccc(S(N)(=O)=O)cc1` [Example 4a, 4-[3-(4-chlorophenyl)-5-methyl-isoxazol-4-yl]benzenesulfonamide], 90.5 µM. For the compound `NS(=O)(=O)c1ccc(-c2c(-c3ccccc3)noc2CCCO)cc1` [Example 1o, 4-[5-(3-hydroxypropyl)-3-phenylisoxazol-4-yl]benzenesulfonamide], the 50% inhibitory concentration (IC50) was greater than 100 µM. As for `NS(=O)(=O)c1ccc(-c2c(-c3ccccc3)noc2COc2ccc(C(=O)O)cc2)cc1` [Example 51, 4-[[4-[4-(Aminosulfonyl)phenyl]-3-phenylisoxazol-5-yl]methoxy]benzoic acid], the IC50 was greater than 100 µM. Take `CC(C)Cc1onc(-c2ccccc2)c1-c1ccc(S(N)(=O)=O)cc1` [Example 1e, 4-[5-isobutyl-3-phenylisoxazol-4-yl]benzenesulfonamide]: the IC50 was 37.7 µM.

As to `Cc1onc(-c2ccc(Br)cc2)c1-c1ccc(S(N)(=O)=O)cc1` [Example 43, 4-[3-(4-Bromophenyl)-5-methyl-isoxazol-4-yl]benzenesulfonamide], the half-maximal inhibitory concentration (IC50) is greater than 100 µM. Still for that read-out and setting: in the case of `NS(=O)(=O)c1ccc(-c2c(-c3ccccc3)noc2Cc2ccc(Cl)cc2)cc1` [Example 1i, 4-[5-(4-chlorophenyl)methyl-3-phenylisoxazol-4-yl]benzenesulfonamide] it was 8.6 µM.

As for `Cc1onc(-c2cccnc2)c1-c1ccc(S(N)(=O)=O)cc1` [Example 4e, 4-[5-methyl-3-(3-pyridyl)isoxazol-4-yl]benzenesulfonamide], the IC50 was greater than 100 µM. On to `NS(=O)(=O)c1ccc(-c2c(-c3ccccc3)noc2Cl)cc1` [Example 38, 4-[5-Chloro-3-phenylisoxazol-4-yl]benzenesulfonamide], for which the IC50 is greater than 100 µM. On the same count and under the same terms, with `Cc1onc(-c2ccc(F)c(F)c2)c1-c1ccc(S(N)(=O)=O)cc1` [Example 49, 4-[3-(3,4-Difluorophenyl)-5-methylisoxazol-4-yl]benzenesulfonamide] the figure was greater than 100 µM. The same measure, in the same setting: in the case of `NS(=O)(=O)c1ccc(-c2c(-c3ccccc3)noc2CC(=O)O)cc1` [Example 9, [4-[4-(Aminosulfonyl)phenyl]-3-phenylisoxazol-5-yl]acetic acid] it was greater than 100 µM; in that of `CCc1noc(-c2cccc(C)c2)c1-c1ccc(S(N)(=O)=O)cc1` [Example 32, 4-[3-Ethyl-5-(3-methylphenyl)isoxazol-4-yl]benzenesulfonamide], 76 µM; in that of `CCc1noc(-c2ccccc2)c1-c1ccc(S(C)(=O)=O)cc1` [Example 29, 3-Ethyl-4-(4-methylsulfonylphenyl)-5-phenylisoxazole], greater than 100 µM. Still for that read-out and setting: in the case of `NS(=O)(=O)c1ccc(-c2c(-c3ccccc3)noc2C2CCCCC2)cc1` [Example 1f, 4-[5-cyclohexyl-3-phenylisoxazol-4-yl]benzenesulfonamide] it was 54 µM; in that of `Cc1noc(-c2ccccc2)c1-c1ccc(S(N)(=O)=O)cc1` [Example 13, 4-[3-Methyl-5-phenylisoxazol-4-yl]benzenesulfonamide], 6.4 µM.
